This passage reports IC50 results from patent US10710986B2, “PD-1/PD-L1 inhibitors” (Gilead Sciences, Inc., priority 2018, dated 2020).

Each structure is given as a SMILES string.

The target of the test is PD-1/PD-L1 (Homo sapiens (Human), UniProt Q9NZQ7). As to the kind of experiment: PD-1/PD-L1 biochemical protein-protein interaction assay (ALPHA). The following applies: 0.3 nM His tagged PD-L1, 2.5 nM biotinylated Fc-PD-1, 60 minutes at 25° C., read-out: IC50 PD-L1-PD1. How it is done: Binding of the protein pairs is measured using a bead based Amplified Luminescent Proximity Homogeneous Assay (ALPHA) platform. Binding of each protein pair results in proximity of the donor and acceptor beads which leads to an increase in ALPHA signal. […] Assays are performed in 25 mM Hepes (pH 7.4), 150 mM NaCl, 3.4 mM EDTA, 0.005% Tween 20, and 0.01% BSA. […] After an assay reaction time of 60 minutes at 25° C., binding was measured with addition of 20 μg/mL ALPHA assay acceptor beads (anti-His coated) and 20 µg/mL ALPHA assay donor beads (streptavidin coated). IC50 values were calculated from the fit of the dose-response curves to a four-parameter equation.
Chain of PD-1/PD-L1 (Q9NZQ7 19-238): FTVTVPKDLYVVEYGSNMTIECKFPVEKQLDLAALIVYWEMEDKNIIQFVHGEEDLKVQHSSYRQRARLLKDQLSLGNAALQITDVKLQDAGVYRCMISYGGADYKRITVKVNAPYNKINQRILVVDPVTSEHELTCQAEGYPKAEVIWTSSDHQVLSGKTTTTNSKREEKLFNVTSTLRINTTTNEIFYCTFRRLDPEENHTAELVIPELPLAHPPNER
As for `CNc1nc(-c2cccc(-c3cccc(-c4cnc(CN5CC(OC)C5)c(NC)n4)c3Cl)c2Cl)cnc1CN1CC(OC)C1` [compound 75], the half-maximal inhibitory concentration (IC50) (usually the concentration that inhibits the measured activity by half) was 0.877 nM.

Turning to `CNc1nc(-c2cccc(-c3cccc(-c4cnc(CN5CC6(C5)CN(C(C)=O)C6)c(NC)n4)c3Cl)c2Cl)cnc1CN1CC2(C1)CN(C(C)=O)C2` [compound 76], the IC50 stood at 0.09 nM.

Turning to `CNc1nc(-c2cccc(-c3cccc(-c4cnc(CN5CC(O)C5)c(NC)n4)c3Cl)c2Cl)cnc1CN1CC(O)C1` [compound 77], the half-inhibitory concentration (IC50) was found to be 0.192 nM.

With `CNc1nc(-c2cccc(-c3cccc(-c4cnc(CN5CC6(CNC(=O)C6)C5)c(NC)n4)c3Cl)c2Cl)cnc1CN1CC2(CNC(=O)C2)C1` [compound 78], the IC50 was 0.064 nM.

Regarding `CNc1nc(-c2cccc(-c3cccc(-c4cnc(CN5CC6(CCC(=O)N6)C5)c(NC)n4)c3Cl)c2Cl)cnc1CN1CC2(CCC(=O)N2)C1` [compound 79], the half-maximal inhibitory concentration (IC50) is 0.292 nM.

In the case of `CNc1nc(-c2cccc(-c3cccc(-c4cnc(CNC[C@@H]5CCC(=O)N5)c(NC)n4)c3Cl)c2Cl)cnc1CNC[C@@H]1CCC(=O)N1` [compound 80], the IC50 came to 0.36 nM.

For the molecule `OC1CN(Cc2cnc(-c3cccc(-c4cccc(-c5cnc(CN6CC(O)C6)cn5)c4Cl)c3Cl)cn2)C1` [compound 81], the IC50 was found to be 4.18 nM.

In the case of `CCc1nc(-c2cccc(-c3cccc(-c4cnc(CN5CC(O)C5)c(CC)n4)c3Cl)c2Cl)cnc1CN1CC(O)C1` [compound 82], the half-maximal inhibitory concentration (IC50) came out at 0.335 nM.

With `CCc1nc(-c2cccc(-c3cccc(-c4cnc(CN5CC6(CNC(=O)C6)C5)c(CC)n4)c3Cl)c2Cl)cnc1CN1CC2(CNC(=O)C2)C1` [compound 83], the concentration for half-maximal inhibition (IC50) turned out to be 0.56 nM.

In the case of `CCc1nc(-c2cccc(-c3cccc(-c4cnc(CN5CC6(CCC(=O)N6)C5)c(CC)n4)c3Cl)c2Cl)cnc1CN1CC2(CCC(=O)N2)C1` [compound 84], the IC50 came to 0.189 nM.

In the case of `CCc1nc(-c2cccc(-c3cccc(-c4cnc(CNC[C@@H]5CCC(=O)N5)c(CC)n4)c3Cl)c2Cl)cnc1CNC[C@@H]1CCC(=O)N1` [compound 85], the half-inhibitory concentration (IC50) was 0.976 nM.

In the case of `COc1nc(-c2cccc(-c3cccc(-c4cnc(CNC56CC(C5)C6)c(OC)n4)c3Cl)c2Cl)cnc1CNC12CC(C1)C2` [compound 86], the half-maximal inhibitory concentration (IC50) was determined as 3.05 nM.

On to `COC1CN(Cc2ncc(-c3cccc(-c4cccc(-c5cnc(CN6CC(OC)C6)c(SC)n5)c4Cl)c3Cl)nc2SC)C1` [compound 87], for which the IC50 is 5.88 nM.

Consider `CSc1nc(-c2cccc(-c3cccc(-c4cnc(CN5CC(O)C5)c(SC)n4)c3Cl)c2Cl)cnc1CN1CC(O)C1` [compound 88], for which the half-inhibitory concentration (IC50) is 0.217 nM.

Consider `CSc1nc(-c2cccc(-c3cccc(-c4cnc(CN5CC6(CNC(=O)C6)C5)c(SC)n4)c3Cl)c2Cl)cnc1CN1CC2(CNC(=O)C2)C1` [compound 89], for which the IC50 was 0.286 nM.

`CSc1nc(-c2cccc(-c3cccc(-c4cnc(CN5CC6(CCC(=O)N6)C5)c(SC)n4)c3Cl)c2Cl)cnc1CN1CC2(CCC(=O)N2)C1` [compound 90]: the IC50 is 0.156 nM.

Turning to `CSc1nc(-c2cccc(-c3cccc(-c4cnc(CNC[C@@H]5CCC(=O)N5)c(SC)n4)c3Cl)c2Cl)cnc1CNC[C@@H]1CCC(=O)N1` [compound 91], the half-inhibitory concentration (IC50) came to 0.978 nM.

For `COC1CN(Cc2ncc(-c3cccc(-c4cccc(-c5cnc(CN6CC(OC)C6)c(C)n5)c4Cl)c3Cl)nc2C)C1` [compound 92], the IC50 turned out to be 1.03 nM.

With `Cc1nc(-c2cccc(-c3cccc(-c4cnc(CN5CC(O)C5)c(C)n4)c3Cl)c2Cl)cnc1CN1CC(O)C1` [compound 93], the IC50 is 0.566 nM.

Consider `Cc1nc(-c2cccc(-c3cccc(-c4cnc(CN5CC6(CNC(=O)C6)C5)c(C)n4)c3Cl)c2Cl)cnc1CN1CC2(CNC(=O)C2)C1` [compound 94], for which the IC50 came out at 0.862 nM.

`Cc1nc(-c2cccc(-c3cccc(-c4cnc(CN5CC6(CCC(=O)N6)C5)c(C)n4)c3Cl)c2Cl)cnc1CN1CC2(CCC(=O)N2)C1` [compound 95]: the half-maximal inhibitory concentration (IC50) amounted to 0.233 nM.

Turning to `Cc1nc(-c2cccc(-c3cccc(-c4cnc(CNC[C@@H]5CCC(=O)N5)c(C)n4)c3Cl)c2Cl)cnc1CNC[C@@H]1CCC(=O)N1` [compound 96], the 50% inhibitory concentration (IC50) stood at 1.5 nM.

Turning to `COC1CN(Cc2ncc(-c3cccc(-c4cccc(-c5cnc(CN6CC(OC)C6)c(N(C)C)n5)c4Cl)c3Cl)nc2N(C)C)C1` [compound 97], the IC50 turned out to be 0.701 nM.

For the molecule `COC1CN(Cc2ncc(-c3cccc(-c4cccc(-c5cnc(CN6CC(OC)C6)c(N(C)C)n5)c4Cl)c3Cl)nc2Cl)C1` [compound 98], the half-inhibitory concentration (IC50) was determined as 0.647 nM.

Take `CN(C)c1nc(-c2cccc(-c3cccc(-c4cnc(CN5CC(O)C5)c(N(C)C)n4)c3Cl)c2Cl)cnc1CN1CC(O)C1` [compound 99]: the IC50 came out at 0.407 nM.

Consider `CN(C)c1nc(-c2cccc(-c3cccc(-c4cnc(CN5CC(O)C5)c(Cl)n4)c3Cl)c2Cl)cnc1CN1CC(O)C1` [compound 100], for which the 50% inhibitory concentration (IC50) worked out at 0.146 nM.

On to `CN(C)c1nc(-c2cccc(-c3cccc(-c4cnc(CN5CC6(CNC(=O)C6)C5)c(N(C)C)n4)c3Cl)c2Cl)cnc1CN1CC2(CNC(=O)C2)C1` [compound 101], for which the IC50 is 0.13 nM.

On to `CN(C)c1nc(-c2cccc(-c3cccc(-c4cnc(CN5CC6(CNC(=O)C6)C5)c(Cl)n4)c3Cl)c2Cl)cnc1CN1CC2(CNC(=O)C2)C1` [compound 102], for which the half-inhibitory concentration (IC50) was 0.223 nM.

As to `CN(C)c1nc(-c2cccc(-c3cccc(-c4cnc(CN5CC6(CCC(=O)N6)C5)c(N(C)C)n4)c3Cl)c2Cl)cnc1CN1CC2(CCC(=O)N2)C1` [compound 103], the half-maximal inhibitory concentration (IC50) came out at 0.071 nM.

For `CN(C)c1nc(-c2cccc(-c3cccc(-c4cnc(CN5CC6(CCC(=O)N6)C5)c(Cl)n4)c3Cl)c2Cl)cnc1CN1CC2(CCC(=O)N2)C1` [compound 104], the IC50 is 0.077 nM.

`CN(C)c1nc(-c2cccc(-c3cccc(-c4cnc(CNC[C@@H]5CCC(=O)N5)c(N(C)C)n4)c3Cl)c2Cl)cnc1CNC[C@@H]1CCC(=O)N1` [compound 105]: the IC50 came out at 0.302 nM.

As for `CN(C)c1nc(-c2cccc(-c3cccc(-c4cnc(CNC[C@@H]5CCC(=O)N5)c(Cl)n4)c3Cl)c2Cl)cnc1CNC[C@@H]1CCC(=O)N1` [compound 106], the IC50 is 0.36 nM.

As for `COC1CN(Cc2ncc(-c3cccc(-c4cccc(-c5cnc(CN6CC(OC)C6)c(Cl)n5)c4Cl)c3Cl)nc2Cl)C1` [compound 107], the IC50 turned out to be 1.54 nM.

In the case of `OC1CN(Cc2ncc(-c3cccc(-c4cccc(-c5cnc(CN6CC(O)C6)c(Cl)n5)c4Cl)c3Cl)nc2Cl)C1` [compound 108], the IC50 amounted to 0.474 nM.

Regarding `O=C1CC2(CN1)CN(Cc1ncc(-c3cccc(-c4cccc(-c5cnc(CN6CC7(CNC(=O)C7)C6)c(Cl)n5)c4Cl)c3Cl)nc1Cl)C2` [compound 109], the concentration for half-maximal inhibition (IC50) was 0.586 nM.

Turning to `O=C1CCC2(CN(Cc3ncc(-c4cccc(-c5cccc(-c6cnc(CN7CC8(CCC(=O)N8)C7)c(Cl)n6)c5Cl)c4Cl)nc3Cl)C2)N1` [compound 110], the IC50 came to 0.327 nM.

Turning to `O=C1CC[C@@H](CNCc2ncc(-c3cccc(-c4cccc(-c5cnc(CNC[C@@H]6CCC(=O)N6)c(Cl)n5)c4Cl)c3Cl)nc2Cl)N1` [compound 111], the IC50 came to 0.297 nM.

For `COc1nc(-c2cccc(-c3cccc(-c4cnc(CN5CC(O)C5)c(OC)n4)c3Br)c2Br)cnc1CN1CC(O)C1` [compound 112], the half-maximal inhibitory concentration (IC50) worked out at 0.076 nM.

On to `COc1nc(-c2cccc(-c3cccc(-c4cnc(CNC[C@@H]5CCC(=O)N5)c(OC)n4)c3Br)c2Br)cnc1CNC[C@@H]1CCC(=O)N1` [compound 113], for which the concentration for half-maximal inhibition (IC50) was determined as 0.211 nM.

`COc1nc(-c2cccc(-c3cccc(-c4cnc(CN5CC6(CNC(=O)C6)C5)c(OC)n4)c3Cl)c2Cl)ccc1C1=NCCN1` [compound 114]: the IC50 turned out to be 0.064 nM.

For `COc1nc(-c2cccc(-c3cccc(-c4cnc(CN5CC6(CCC(=O)N6)C5)c(OC)n4)c3Cl)c2Cl)ccc1C1=NCCN1` [compound 115], the IC50 stood at 0.115 nM.

For the molecule `COc1nc(-c2cccc(-c3cccc(-c4cnc(CN5CC(O)C5)c(OC)n4)c3Cl)c2Cl)ccc1C1=NCCN1` [compound 116], the half-maximal inhibitory concentration (IC50) stood at 0.064 nM.

In the case of `COc1nc(-c2cccc(-c3cccc(-c4cnc(CNC[C@@H]5CCC(=O)N5)c(OC)n4)c3Cl)c2Cl)ccc1C1=NCCN1` [compound 117], the IC50 was 0.281 nM.

In the case of `COc1nc(-c2cccc(-c3cccc(-c4cnc(CN5CC(F)C5)c(OC)n4)c3Cl)c2Cl)cnc1CN1CC(F)C1` [compound 118], the IC50 turned out to be 0.715 nM.

As for `COc1nc(-c2cccc(-c3cccc(-c4cnc(C5=NCC(F)(F)CN5)c(OC)n4)c3Cl)c2Cl)cnc1C1=NCC(F)(F)CN1` [compound 119], the IC50 came out at 0.115 nM.

Consider `COc1nc(-c2cccc(-c3cccc(-c4cnc(CN5CC6(CNC(=O)C6)C5)c(OC)n4)c3Cl)c2Cl)cnc1CN1CC2(CNC(=O)C2)C1` [compound 120], for which the 50% inhibitory concentration (IC50) came out at 0.32 nM.

`COc1nc(-c2cccc(-c3cccc(-c4cnc(C5=NC[C@H](C)N5)c(OC)n4)c3Cl)c2Cl)cnc1C1=NC[C@H](C)N1` [compound 121]: the half-maximal inhibitory concentration (IC50) was 0.064 nM.

Take `COc1cc(-c2cccc(-c3cccc(-c4cnc(CN)c(OC)n4)c3Cl)c2Cl)ccc1CN` [compound 122]: the 50% inhibitory concentration (IC50) was 1.69 nM.

`COc1cc(-c2cccc(-c3cccc(-c4cnc(CN5CC6(CNC(=O)C6)C5)c(OC)n4)c3Cl)c2Cl)ccc1CN1CC2(CNC(=O)C2)C1` [compound 123]: the IC50 worked out at 0.112 nM.

With `COc1cc(-c2cccc(-c3cccc(-c4cnc(CN5CC6(CCC(=O)N6)C5)c(OC)n4)c3Cl)c2Cl)ccc1CN1CC2(CCC(=O)N2)C1` [compound 124], the IC50 came to 0.19 nM.

Take `COc1cc(-c2cccc(-c3cccc(-c4cnc(CNC[C@@H]5CCC(=O)N5)c(OC)n4)c3Cl)c2Cl)ccc1CNC[C@@H]1CCC(=O)N1` [compound 125]: the IC50 amounted to 0.225 nM.
